Data: patent publication US12435061B2 (priority 2020, dated 2025)
Converted amounts (≈) assume the structure as drawn. Read-outs that look alike come from different tables or passages of the source.

Key:
hTRPV3 [1] = target: T1, hTRPV3 (Homo sapiens (Human), UniProt Q8NET8); assay: Whole-cell patch clamp, hTRPV3 Phase 1 / Phase 2 currents; format: cell-based
Method in brief: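 Currents are activated by 20 μM 2-APB or by perfusate at 28 °C or warmer, in Ringer's solution, and quantified at ±80 mV.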

[2] = Aqueous solubility assay in Normal Ringer Solution; conditions: Normal Ringer Solution; for Solubility Ringer (nM): room temperature; for solubility at 40 min: saline or isotonic, kinetic from dmso stock
Protocol: Following vortex and incubation for a sufficient time (e.g. 40 minutes at room temperature), solutions were filtered, quenched with acetonitrile, and analyzed by Liquid Chromotography. Solubility Limits were determined by comparison to a standard curve.

hTRPV3 [3] = target: T1, hTRPV3; assay: hTRPV3 HAMA IC50 assay (Hamamatsu FDSS6000 calcium flux, TRex-293 cells)
Protocol: IC50s were calculated using CBIS from ChemInnovation (San Diego).

[4] = Metabolic Stability assay, rat liver microsomes; format: in vitro ADME; conditions: read-out: LM T1/2 (min) (rat)
Method in brief: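 Reactions in human or rat liver microsomes at 37 °C were started with an NADPH-regenerating system, using 1 μM compound initially. Samples were taken at 0, 7, 15, 30 and 60 min, quenched in ice-cold acetonitrile/MeOH/H2O, and quantified by HPLC/MS/MS.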

[5] = Phase 1 current, inward, whole-cell patch clamp, read-out: hTRPV3 Patch P1 Inwd
[6] = Phase 1 current, read-out: hTRPV3 (nM) (Phase 1)
[7] = Phase 2 current, inward, whole-cell patch clamp, read-out: hTRPV3 Patch P2 Inwd
[8] = Phase 2 current, read-out: hTRPV3 (nM) (Phase 2)
[9] = hTRPV3 HAMA IC50 (nM) (5 min), 5 min
[10] = hTRPV3 HAMA IC50 (nM) (30 min), 30 min

T1 sequence (Q8NET8 whole entry): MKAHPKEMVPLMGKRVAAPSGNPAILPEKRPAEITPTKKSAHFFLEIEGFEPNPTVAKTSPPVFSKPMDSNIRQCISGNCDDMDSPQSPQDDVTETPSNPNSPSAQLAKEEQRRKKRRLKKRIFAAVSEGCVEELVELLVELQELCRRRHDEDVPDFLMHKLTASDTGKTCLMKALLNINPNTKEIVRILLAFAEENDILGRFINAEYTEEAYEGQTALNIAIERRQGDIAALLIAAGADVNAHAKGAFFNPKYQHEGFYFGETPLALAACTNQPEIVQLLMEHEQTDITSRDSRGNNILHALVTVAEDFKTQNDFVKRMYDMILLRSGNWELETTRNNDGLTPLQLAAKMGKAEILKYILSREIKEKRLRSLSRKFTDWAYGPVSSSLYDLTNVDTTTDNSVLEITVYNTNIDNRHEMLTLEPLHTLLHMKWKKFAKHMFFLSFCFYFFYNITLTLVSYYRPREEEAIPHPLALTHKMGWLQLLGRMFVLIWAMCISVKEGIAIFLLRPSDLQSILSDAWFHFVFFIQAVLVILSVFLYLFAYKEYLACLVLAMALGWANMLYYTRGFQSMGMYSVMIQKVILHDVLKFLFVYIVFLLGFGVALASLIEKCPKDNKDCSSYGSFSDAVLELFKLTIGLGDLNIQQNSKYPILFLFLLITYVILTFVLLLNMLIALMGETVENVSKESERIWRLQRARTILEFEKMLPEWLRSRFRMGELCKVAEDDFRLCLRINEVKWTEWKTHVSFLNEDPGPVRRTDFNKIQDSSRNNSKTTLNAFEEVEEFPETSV

| SMILES | IC50 (hTRPV3 [1]; [5]) [nM] | IC50 (hTRPV3 [1]; [6]) [nM] | IC50 (hTRPV3 [1]; [7]) [nM] | IC50 (hTRPV3 [1]; [8]) [nM] | Solubility Ringer (nM) [2] | hTRPV3 HAMA IC50 (nM) (5 min) (hTRPV3 [3]; 5 min) | hTRPV3 HAMA IC50 (nM) (30 min) (hTRPV3 [3]; 30 min) | other results |
| --- | --- | --- | --- | --- | --- | --- | --- | --- |
| N#Cc1cc(C(F)(F)F)ccc1N1CC[C@H](Oc2ccc(C(F)(F)F)cn2)C1 [Compound 1-57] | 100 to 1000 | 706 | 100 to 1000 | 219 | BLQ | no fit (5 min) | – | – |
| NC(=O)c1cc(-c2ccccc2Cl)ccc1N1CC[C@H](Oc2ccc(C(F)(F)F)cn2)C1 [Compound 1-64, (S)-2′-chloro-4-(3-(5-(trifluoromethyl)pyridin-2-yloxy)pyrrolidin-1-yl)biphenyl-3-carboxamide] | 100 to 1000 | 145 | 100 to 1000 | 160 | BLQ | no fit (5 min) | – | – |
| O=[N+]([O-])c1cc(-c2ccccc2)ccc1N1CC[C@H](Oc2ccc(C(F)(F)F)cn2)C1 [Compound 1-66, (S)-2-(1-(3-nitrobiphenyl-4-yl)pyrrolidin-3-yloxy)-5-(trifluoromethyl)pyridine] | – | – | – | – | BLQ | no fit (5 min) | – | hTRPV3 (nM) (Phase 1) (hTRPV3 [1]): Incomplete Block (Phase 1) |
| NC(=O)c1cc(-c2ccccc2)ccc1N1CC[C@H](Oc2ccc3cc(Cl)ccc3n2)C1 [Compound 1-67, (S)-4-(3-(6-chloroquinolin-2-yloxy)pyrrolidin-1-yl)biphenyl-3-carboxamide] | > 1000 | 1270 | 100 to 1000 | 585 | BLQ | no fit (5 min) | – | – |
| Cc1ccccc1-c1ccc(N2CC[C@H](Oc3ccc(C(F)(F)F)cn3)C2)c(CO)c1 [Compound 1-128, (S)-(2′-methyl-4-(3-(5-(trifluoromethyl)pyridin-2-yloxy)pyrrolidin-1-yl)biphenyl-3-yl)methanol] | 100 to 1000 | 114 | – | – | BLQ | no fit (5 min) | – | – |
| NC(=O)c1cc(Oc2ccccc2)ccc1N1CC[C@H](Oc2ncccc2Cl)C1 [Compound 1-129] | – | – | – | – | – | – | – | half-life at 1 μM [4]: 6.42 min; IC50 (hTRPV3 [1]; hTRPV3 Patch P1 Inwd (nM)): 100 to 1000 nM; hTRPV3 HAMA IC50 (nM) (5 min) (hTRPV3 [3]): no fit (5 min) |
| NC(=O)c1cc(C(=O)c2ccccc2)ccc1N1CC[C@@H](Oc2ccc(C(F)(F)F)cn2)C1 [Compound 1-154, (R)-5-benzoyl-2-(3-(5-(trifluoromethyl)pyridin-2-yloxy)pyrrolidin-1-yl)benzamide] | > 1000 | 3040 | – | – | – | no fit (5 min) | – | half-life at 1 μM [4]: 54.5 min |
| OCc1cc(-c2ccccc2OC(F)(F)F)ccc1N1CC[C@H](Oc2ccc(C(F)(F)F)cn2)C1 [Compound 1-161, (S)-(2′-(trifluoromethoxy)-4-(3-(5-(trifluoromethyl)pyridin-2-yloxy)pyrrolidin-1-yl)biphenyl-3-yl)methanol] | 10 to 100 | 93.4 | – | – | BLQ | no fit (5 min) | – | – |
| CCOc1ccccc1-c1ccc(N2CC[C@H](Oc3ccc(C(F)(F)F)cn3)C2)c(CO)c1 [Compound 1-162, (S)-(2′-ethoxy-4-(3-(5-(trifluoromethyl)pyridin-2-yloxy)pyrrolidin-1-yl)biphenyl-3-yl)methanol] | 10 to 100 | 101 | – | – | – | no fit (5 min) | – | half-life at 1 μM [4]: 22.8 min |
| OCCCc1cc(-c2ccccc2Cl)ccc1N1CC[C@H](Oc2ccc(C(F)(F)F)cn2)C1 [Compound 1-164] | 100 to 1000 | 190 | – | – | BLQ | no fit (5 min) | – | – |
| Cc1ccccc1-c1ccc(N2CC[C@H](Oc3ncccc3C)C2)c(CO)n1 [Compound 1-179, (S)-(3-(3-(3-methylpyridin-2-yloxy)pyrrolidin-1-yl)-6-o-tolylpyridin-2-yl)methanol] | 100 to 1000 | 329 | 100 to 1000 | ~841 | – | no fit (5 min) | – | solubility at 40 min [2]: > 0.73 µM |
| OCc1ccc(-c2ccccc2)cc1N1CC[C@H](Oc2ccc(C(F)(F)F)cn2)C1 [Compound 1-180, (S)-(3-(3-(5-(trifluoromethyl)pyridin-2-yloxy)pyrrolidin-1-yl)biphenyl-4-yl)methanol] | > 1000 | 1550 | > 1000 | 1860 | – | no fit (5 min) no fit (30 min) | no fit (5 min) no fit (30 min) | solubility at 40 min [2]: ~0.2 µM (≈ 0.0829 µg/mL) |
| NC(=O)c1cc(Oc2ccccc2Cl)ccc1N1CC[C@H](Oc2ncccc2Cl)C1 [Compound 1-181, (S)-5-(2-chlorophenoxy)-2-(3-(3-chloropyridin-2-yloxy)pyrrolidin-1-yl)benzamide] | 100 to 1000 | 571 | 100 to 1000 | 834 | – | no fit (5 min) | – | half-life at 1 μM [4]: 8.96 min |
| Cc1ccccc1-c1ccc(N2CC[C@H](Oc3ccc(C(F)(F)F)cn3)C2)c(CO)n1 [Compound 1-182, (S)-(6-o-tolyl-3-(3-(5-(trifluoromethyl)pyridin-2-yloxy)pyrrolidin-1-yl)pyridin-2-yl)methanol] | > 1000 | > 3200 | – | – | – | – | – | solubility at 40 min [2]: ~0.8 µM (≈ 0.344 µg/mL); IC50 (hTRPV3 [3]; [9]): 19900 nM; IC50 (hTRPV3 [3]; [10]): 4600 nM |
| COc1ccccc1-c1ccc(N2CC[C@H](Oc3ccc(C(F)(F)F)cn3)C2)c(CO)n1 [Compound 1-183, (S)-(6-(2-methoxyphenyl)-3-(3-(5-(trifluoromethyl)pyridin-2-yloxy)pyrrolidin-1-yl)pyridin-2-yl)methanol] | – | – | > 1000 | > 3200 | – | no fit (5 min) no fit (30 min) | no fit (5 min) no fit (30 min) | solubility at 40 min [2]: 0.84 µM (≈ 0.374 µg/mL) |
| Cc1ccc(O[C@H]2CCN(c3ccc(-c4ccccc4CN(C)C)cc3CO)C2)nc1 [Compound 1-219, (S)-(2′-((dimethylamino)methyl)-4-(3-(5-methylpyridin-2-yloxy)pyrrolidin-1-yl)biphenyl-3-yl)methanol] | – | – | – | – | – | no fit (5 min) no fit (30 min) | no fit (5 min) no fit (30 min) | IC50 (hTRPV3 [1]; hTRPV3 Patch P1 Inwd (nM)): > 1000 nM; IC50 (hTRPV3 [1]; read-out: hTRPV3 (nM) (Phase 1)): > 3200 nM; solubility at 40 min [2]: > 20 µM |
| CCc1ccccc1Oc1ccc(CO)c(N2CC[C@H](Oc3ccc(C(F)(F)F)cn3)C2)c1 [Compound 1-228, (S)-(4-(2-ethylphenoxy)-2-(3-(5-(trifluoromethyl)pyridin-2-yloxy)pyrrolidin-1-yl)phenyl)methanol] | 10 to 100 | 62.1 | – | – | – | no fit (5 min) no fit (30 min) | no fit (5 min) no fit (30 min) | – |
| Cc1ccccc1Oc1ccc(CO)c(N2CC[C@H](Oc3ccc(C(F)(F)F)cn3)C2)c1 [Compound 1-230, (S)-(4-(o-tolyloxy)-2-(3-(5-(trifluoromethyl)pyridin-2-yloxy)pyrrolidin-1-yl)phenyl)methanol] | 100 to 1000 | 198 | – | – | – | no fit (5 min) no fit (30 min) | no fit (5 min) no fit (30 min) | – |
| OCc1ccc(-c2ccccc2Cl)cc1N1CC[C@H](Oc2ncccc2Cl)C1 [Compound 1-234, (S)-(2′-chloro-3-(3-(3-chloropyridin-2-yloxy)pyrrolidin-1-yl)biphenyl-4-yl)methanol] | 100 to 1000 | 737 | – | – | – | no fit (5 min) no fit (30 min) | no fit (5 min) no fit (30 min) | – |
| CCc1ccccc1Oc1ccc(N2CC[C@H](Oc3ncccc3Cl)C2)c(CCO)c1 [Compound 1-236, (S)-2-(2-(3-(3-chloropyridin-2-yloxy)pyrrolidin-1-yl)-5-(2-ethylphenoxy)phenyl)ethanol] | < 10 | 8.27 | – | – | BLQ | no fit | – | IC50 (hTRPV3 [3]; [10]): 5900 nM |
| OCCc1cc(Oc2ccccc2Cl)ccc1N1CC[C@H](Oc2ncccc2Cl)C1 [Compound 1-238, (S)-2-(5-(2-chlorophenoxy)-2-(3-(3-chloropyridin-2-yloxy)pyrrolidin-1-yl)phenyl)ethanol] | 10 to 100 | ~51 | – | – | BLQ | – | – | IC50 (hTRPV3 [3]; [9]): > 20000 nM; IC50 (hTRPV3 [3]; [10]): 16700 nM |
| Cc1ccccc1-c1ccc(CO)c(N2CC[C@H](Oc3ccc(C(F)(F)F)cn3)C2)c1 [Compound 1-239, (S)-(2′-methyl-3-(3-(5-(trifluoromethyl)pyridin-2-yloxy)pyrrolidin-1-yl)biphenyl-4-yl)methanol] | 100 to 1000 | 607 | – | – | – | no fit (5 min) no fit (30 min) | no fit (5 min) no fit (30 min) | – |
| Cc1ccccc1-c1ccc(CO)c(N2CC[C@H](Oc3ncccc3Cl)C2)c1 [Compound 1-240, (S)-(3-(3-(3-chloropyridin-2-yloxy)pyrrolidin-1-yl)-2′-methylbiphenyl-4-yl)methanol] | 100 to 1000 | 934 | – | – | – | no fit (5 min) no fit (30 min) | no fit (5 min) no fit (30 min) | – |
